Columns and labels:
Type in all cases: binding
[1] = biological target: T1, kinases (KINOMEscan panel) (Homo sapiens, UniProt O15530); conditions: NEW KINOMEscan
T1 sequence (O15530 1-556): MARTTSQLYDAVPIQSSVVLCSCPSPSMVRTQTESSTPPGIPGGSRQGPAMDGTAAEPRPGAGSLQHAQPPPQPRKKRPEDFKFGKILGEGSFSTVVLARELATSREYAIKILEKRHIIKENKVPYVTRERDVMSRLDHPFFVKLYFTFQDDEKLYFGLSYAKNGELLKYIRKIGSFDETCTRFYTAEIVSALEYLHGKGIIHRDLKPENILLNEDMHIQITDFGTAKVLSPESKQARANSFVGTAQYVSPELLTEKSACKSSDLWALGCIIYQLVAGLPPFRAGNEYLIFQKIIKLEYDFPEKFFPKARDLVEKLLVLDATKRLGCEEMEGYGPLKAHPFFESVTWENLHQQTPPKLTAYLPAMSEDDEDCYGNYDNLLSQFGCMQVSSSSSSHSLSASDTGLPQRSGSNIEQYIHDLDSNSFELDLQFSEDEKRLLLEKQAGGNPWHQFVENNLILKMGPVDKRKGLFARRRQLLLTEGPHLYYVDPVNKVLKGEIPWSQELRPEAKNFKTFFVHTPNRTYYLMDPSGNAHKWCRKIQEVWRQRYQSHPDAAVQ

[2] = biological target: kinases (KINOMEscan panel) (Homo sapiens, UniProt P16234); conditions: PDGFRA; NEW KINOMEscan
[3] = biological target: T2, kinases (KINOMEscan panel) (Homo sapiens, UniProt P36888); conditions: NEW KINOMEscan; for KINOMEscan FLT3-autoinhibited: kinase FLT3-autoinhibited
T2 sequence (P36888 27-993): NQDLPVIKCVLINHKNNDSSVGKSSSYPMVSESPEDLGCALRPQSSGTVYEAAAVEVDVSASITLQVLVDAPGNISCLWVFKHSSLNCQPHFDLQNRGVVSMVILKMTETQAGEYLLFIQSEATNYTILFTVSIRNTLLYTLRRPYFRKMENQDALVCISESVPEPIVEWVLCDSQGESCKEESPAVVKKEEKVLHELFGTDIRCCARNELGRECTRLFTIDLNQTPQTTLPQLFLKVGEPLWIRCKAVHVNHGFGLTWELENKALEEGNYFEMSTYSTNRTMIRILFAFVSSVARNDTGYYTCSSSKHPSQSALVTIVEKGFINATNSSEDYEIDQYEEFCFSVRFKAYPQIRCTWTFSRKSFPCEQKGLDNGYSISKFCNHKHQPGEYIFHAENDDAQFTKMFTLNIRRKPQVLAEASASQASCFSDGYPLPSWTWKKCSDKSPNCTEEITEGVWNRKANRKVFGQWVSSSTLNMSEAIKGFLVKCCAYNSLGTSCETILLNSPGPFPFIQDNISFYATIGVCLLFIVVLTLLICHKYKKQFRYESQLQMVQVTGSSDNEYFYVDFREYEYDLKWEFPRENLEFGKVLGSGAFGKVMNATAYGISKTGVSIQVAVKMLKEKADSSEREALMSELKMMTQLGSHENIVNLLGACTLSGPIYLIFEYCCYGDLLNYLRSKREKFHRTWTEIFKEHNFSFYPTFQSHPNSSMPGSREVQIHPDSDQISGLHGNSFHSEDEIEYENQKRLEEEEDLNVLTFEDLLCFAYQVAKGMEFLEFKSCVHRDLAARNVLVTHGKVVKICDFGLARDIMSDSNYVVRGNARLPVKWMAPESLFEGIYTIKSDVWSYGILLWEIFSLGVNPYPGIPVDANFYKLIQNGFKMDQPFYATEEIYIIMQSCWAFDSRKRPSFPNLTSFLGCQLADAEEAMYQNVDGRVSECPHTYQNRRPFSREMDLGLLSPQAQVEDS

[4] = biological target: kinases (KINOMEscan panel) (Homo sapiens, UniProt P42336, E542K); conditions: NEW KINOMEscan
[5] = biological target: kinases (KINOMEscan panel) (Homo sapiens, UniProt P42336, E545K); conditions: NEW KINOMEscan
[6] = biological target: T3, kinases (KINOMEscan panel) (Homo sapiens, UniProt Q9UL54); conditions: kinase TAOK2; NEW KINOMEscan
T3 sequence (Q9UL54 1-1235): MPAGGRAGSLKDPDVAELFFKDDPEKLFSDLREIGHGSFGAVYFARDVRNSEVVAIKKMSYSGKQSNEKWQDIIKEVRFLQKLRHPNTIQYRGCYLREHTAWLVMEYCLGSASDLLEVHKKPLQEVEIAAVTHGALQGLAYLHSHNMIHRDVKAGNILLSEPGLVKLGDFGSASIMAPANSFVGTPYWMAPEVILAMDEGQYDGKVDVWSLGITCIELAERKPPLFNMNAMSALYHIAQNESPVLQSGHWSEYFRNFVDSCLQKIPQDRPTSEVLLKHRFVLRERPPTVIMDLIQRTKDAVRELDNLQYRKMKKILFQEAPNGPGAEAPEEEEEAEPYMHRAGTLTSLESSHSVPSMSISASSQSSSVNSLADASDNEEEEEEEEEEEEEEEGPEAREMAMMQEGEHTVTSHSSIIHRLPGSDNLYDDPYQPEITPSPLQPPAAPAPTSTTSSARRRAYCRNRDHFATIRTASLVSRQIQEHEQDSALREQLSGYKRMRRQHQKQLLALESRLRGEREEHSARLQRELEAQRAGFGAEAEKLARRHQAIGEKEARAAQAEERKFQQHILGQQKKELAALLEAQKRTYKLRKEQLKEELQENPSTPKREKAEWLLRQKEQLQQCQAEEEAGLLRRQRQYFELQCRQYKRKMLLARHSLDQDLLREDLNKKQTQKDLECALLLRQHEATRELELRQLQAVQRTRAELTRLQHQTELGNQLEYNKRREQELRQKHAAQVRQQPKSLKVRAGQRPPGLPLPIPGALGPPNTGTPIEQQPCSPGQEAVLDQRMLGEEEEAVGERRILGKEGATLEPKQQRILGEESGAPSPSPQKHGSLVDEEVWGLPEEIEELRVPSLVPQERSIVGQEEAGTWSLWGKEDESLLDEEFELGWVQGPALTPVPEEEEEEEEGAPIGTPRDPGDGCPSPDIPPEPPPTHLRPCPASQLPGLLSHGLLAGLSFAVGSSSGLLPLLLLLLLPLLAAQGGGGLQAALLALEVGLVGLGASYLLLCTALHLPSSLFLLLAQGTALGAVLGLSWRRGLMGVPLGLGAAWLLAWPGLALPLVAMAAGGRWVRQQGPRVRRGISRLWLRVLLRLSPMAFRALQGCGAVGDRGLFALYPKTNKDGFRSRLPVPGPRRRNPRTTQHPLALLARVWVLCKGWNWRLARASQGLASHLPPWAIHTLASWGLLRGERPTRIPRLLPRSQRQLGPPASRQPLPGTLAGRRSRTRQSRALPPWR

kinases (KINOMEscan panel) (Homo sapiens, UniProt P42336, E542K), sequence (P42336 whole entry E542K): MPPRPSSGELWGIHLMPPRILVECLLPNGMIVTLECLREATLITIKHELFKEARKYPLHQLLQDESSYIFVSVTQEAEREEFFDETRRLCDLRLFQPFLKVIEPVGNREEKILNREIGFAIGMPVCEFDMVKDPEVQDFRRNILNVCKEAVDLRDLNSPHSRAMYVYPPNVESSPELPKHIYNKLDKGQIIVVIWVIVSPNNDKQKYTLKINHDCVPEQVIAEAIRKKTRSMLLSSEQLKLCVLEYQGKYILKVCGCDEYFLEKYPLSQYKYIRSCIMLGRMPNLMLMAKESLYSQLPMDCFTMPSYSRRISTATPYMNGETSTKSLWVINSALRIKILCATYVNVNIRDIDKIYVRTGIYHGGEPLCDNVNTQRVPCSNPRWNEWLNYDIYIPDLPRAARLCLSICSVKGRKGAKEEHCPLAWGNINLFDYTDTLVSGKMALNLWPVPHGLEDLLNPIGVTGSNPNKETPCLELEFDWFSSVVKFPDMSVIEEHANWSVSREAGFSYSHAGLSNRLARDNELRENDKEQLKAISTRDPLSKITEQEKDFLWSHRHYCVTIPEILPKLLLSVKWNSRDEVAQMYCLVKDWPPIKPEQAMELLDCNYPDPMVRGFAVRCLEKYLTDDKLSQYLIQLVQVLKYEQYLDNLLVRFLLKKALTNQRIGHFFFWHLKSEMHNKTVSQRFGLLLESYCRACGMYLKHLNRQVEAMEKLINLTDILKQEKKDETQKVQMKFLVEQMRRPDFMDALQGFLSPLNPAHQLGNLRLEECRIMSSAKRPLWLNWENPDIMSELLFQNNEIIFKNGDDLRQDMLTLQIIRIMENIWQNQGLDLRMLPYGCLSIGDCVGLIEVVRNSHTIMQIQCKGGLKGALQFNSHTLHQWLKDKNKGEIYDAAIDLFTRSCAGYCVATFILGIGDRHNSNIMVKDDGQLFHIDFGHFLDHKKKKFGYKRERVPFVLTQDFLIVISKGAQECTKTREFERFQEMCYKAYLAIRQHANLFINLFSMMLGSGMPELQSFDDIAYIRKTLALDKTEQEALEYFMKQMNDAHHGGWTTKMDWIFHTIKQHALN
kinases (KINOMEscan panel) (Homo sapiens, UniProt P16234), sequence (P16234 24-1089): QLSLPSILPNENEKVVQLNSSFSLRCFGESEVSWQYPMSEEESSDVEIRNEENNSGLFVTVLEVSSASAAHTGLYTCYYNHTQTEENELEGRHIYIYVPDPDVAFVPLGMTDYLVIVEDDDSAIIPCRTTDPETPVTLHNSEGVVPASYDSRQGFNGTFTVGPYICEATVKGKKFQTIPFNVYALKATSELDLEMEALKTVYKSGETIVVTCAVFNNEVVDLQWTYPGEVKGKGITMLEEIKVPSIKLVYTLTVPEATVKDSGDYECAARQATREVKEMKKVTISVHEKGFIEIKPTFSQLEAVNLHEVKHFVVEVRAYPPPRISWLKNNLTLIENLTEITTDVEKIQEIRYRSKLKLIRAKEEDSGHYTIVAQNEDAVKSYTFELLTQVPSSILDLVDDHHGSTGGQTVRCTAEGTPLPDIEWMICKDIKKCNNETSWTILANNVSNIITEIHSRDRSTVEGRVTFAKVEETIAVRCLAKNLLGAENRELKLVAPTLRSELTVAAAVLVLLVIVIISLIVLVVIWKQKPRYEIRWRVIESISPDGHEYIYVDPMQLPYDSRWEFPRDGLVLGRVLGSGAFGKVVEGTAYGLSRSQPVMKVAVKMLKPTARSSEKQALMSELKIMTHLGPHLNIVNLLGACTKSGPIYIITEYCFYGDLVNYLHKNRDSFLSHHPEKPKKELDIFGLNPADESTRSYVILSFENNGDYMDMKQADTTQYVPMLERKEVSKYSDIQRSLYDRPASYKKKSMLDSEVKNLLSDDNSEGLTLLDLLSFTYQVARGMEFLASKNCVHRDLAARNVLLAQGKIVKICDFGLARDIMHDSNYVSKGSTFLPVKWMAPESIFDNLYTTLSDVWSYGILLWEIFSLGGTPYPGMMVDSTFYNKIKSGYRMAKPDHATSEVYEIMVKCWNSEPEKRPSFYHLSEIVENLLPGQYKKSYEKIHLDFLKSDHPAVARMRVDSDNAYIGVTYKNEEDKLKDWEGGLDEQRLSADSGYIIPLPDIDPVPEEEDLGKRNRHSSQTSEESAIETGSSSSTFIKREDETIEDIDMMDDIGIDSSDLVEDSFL
kinases (KINOMEscan panel) (Homo sapiens, UniProt P42336, E545K), sequence (P42336 whole entry E545K): as the sequence (P42336 whole entry E542K) above, with K542E, E545K counted along it

Compound	KINOMEscan PDPK1 [1]	KINOMEscan PDGFRA [2]	KINOMEscan FLT3 [3]	KINOMEscan FLT3-autoinhibited [3]	KINOMEscan PIK3CA(E542K) [4]	KINOMEscan PIK3CA(E545K) [5]	KINOMEscan TAOK2 [6]
Cc1cccc(-c2nc(N(C)c3ccc4ncsc4c3)c3ccccc3n2)n1 [NK-161]	29	0	0	0	19	40	20
Cc1cccc(-c2nc(Nc3ccc4nn(C)cc4c3)c3ccccc3n2)n1 [NK167]	32	0	0	0	15	67	19
